Test results from patent US6140368A, “Naphthols useful in antiviral methods” (The Regents of the University of California, priority 1998, dated 2000).
Read-outs that look alike come from different tables or passages of the source.

Experiments:
[1] = biological target: HIV reverse transcriptase (Human immunodeficiency virus type 1 group M subtype B, UniProt P03366); assay: Reverse transcriptase scintillation proximity assay (Example 4, Table 2); type: biochemical; settings: for IC50: read-out: IC50 (RT activity); for remaining activity at 10 µM: 0.05 h, read-out: % RT activity remaining at 10 μM
How it was run: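 Purified RT with biotinylated 17mer/50mer RNA-DNA template-primer (39 nm), pH 8.0 Tris with 10 mM MgCl2, 60 mM KCl, dNTPs plus tritiated dTTP; inhibitor preincubated 10 min at 37 °C before enzyme, reaction 3 min. Incorporation read by streptavidin SPA counting.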

HIV integrase [2] = biological target: T1, HIV integrase (Human immunodeficiency virus type 1 group M subtype B, UniProt P04585); assay: biochemical
HIV integrase [3] = biological target: T1, HIV integrase; assay: biochemical; remark: listed apart in the source
HIV = assay: Cell-based anti-HIV (XTT) assay (National Institutes of Health); settings: run by the National Institutes of Health
Excerpt: The anti-viral evaluations branch of the National Institutes of Health also ran cell-based anti-HIV (XTT) assays and reverse transcriptase (RT) assays on a number of the novel compounds. […] These were: 31, 32, 35, 36, 53, 54, 57, 58, 91, 99, and 103.

[4] = read-out: Inhibition of 3' processing activity (IC50)
[5] = read-out: Inhibition of strand transfer (IC50)
[6] = 10 μM inhibitor, relative to dimethyl sulfoxide = 100%

Structure (SMILES)	IC50 [1] [nM]	IC50 (HIV integrase [2]; [4]) [nM]	IC50 (HIV integrase [3]; [5]) [nM]	conclusion of cell-based anti-HIV (XTT) assays and reverse transcriptase (RT) assays (HIV)	remaining activity at 10 µM [1, 6] [%]	remaining activity at 10 µM [1] [%]	IC50 (HIV integrase [2]; Inhibition of 3' processing activity (IC50)) [nM]	IC50 (HIV integrase [3]; Inhibition of strand transfer (IC50)) [nM]
O=C(Nc1ccc2c(O)c(N=Nc3ccc(C(=O)O)cc3)c(S(=O)(=O)O)cc2c1)Nc1ccc2c(O)c(N=Nc3ccc(C(=O)O)cc3)c(S(=O)(=O)O)cc2c1 [Compound 31]	390	400	700	active or moderately active	–	–	–	–
Cc1cc(C(=O)O)ccc1N=Nc1c(S(=O)(=O)O)cc2cc(NC(=O)Nc3ccc4c(O)c(N=Nc5ccc(C(=O)O)cc5C)c(S(=O)(=O)O)cc4c3)ccc2c1O [Compound 53]	600	500	2000	active or moderately active	–	–	–	–
O=C(O)CCCc1ccc(N=Nc2c(S(=O)(=O)O)cc3cc(NC(=O)Nc4ccc5c(O)c(N=Nc6ccc(CCCC(=O)O)cc6)c(S(=O)(=O)O)cc5c4)ccc3c2O)cc1 [Compound 36]	500	800	1000	active or moderately active	–	–	–	–
COc1cc(C(=O)O)ccc1N=Nc1c(S(=O)(=O)O)cc2cc(NC(=O)Nc3ccc4c(O)c(N=Nc5ccc(C(=O)O)cc5OC)c(S(=O)(=O)O)cc4c3)ccc2c1O [Compound 54]	–	4000	2000	active or moderately active	0.6	–	–	–
O=C(Nc1ccc2c(O)c(N=Nc3cccc(C(=O)O)c3)c(S(=O)(=O)O)cc2c1)Nc1ccc2c(O)c(N=Nc3cccc(C(=O)O)c3)c(S(=O)(=O)O)cc2c1 [Compound 58]	800	200	600	active or moderately active	–	–	–	–
O=C(O)Cc1ccc(N=Nc2c(S(=O)(=O)O)cc3cc(NC(=O)Nc4ccc5c(O)c(N=Nc6ccc(CC(=O)O)cc6)c(S(=O)(=O)O)cc5c4)ccc3c2O)cc1 [Compound 32]	500	2000	700	active or moderately active	–	–	–	–
O=C(O)/C=C/c1ccc(N=Nc2c(S(=O)(=O)O)cc3cc(NC(=O)C(=O)Nc4ccc5c(O)c(N=Nc6ccc(/C=C/C(=O)O)cc6)c(S(=O)(=O)O)cc5c4)ccc3c2O)cc1 [Compound 91]	–	–	–	active or moderately active	–	–	–	–
O=C(Nc1ccc2c(O)c(N=Nc3cc(C(=O)O)ccc3C(=O)O)c(S(=O)(=O)O)cc2c1)Nc1ccc2c(O)c(N=Nc3cc(C(=O)O)ccc3C(=O)O)c(S(=O)(=O)O)cc2c1 [Compound 35]	500	800	2000	active or moderately active	–	–	–	–
CCOC(=O)c1cccc(N=Nc2c(S(=O)(=O)O)cc3cc(NC(=O)Nc4ccc5c(O)c(N=Nc6cccc(C(=O)OCC)c6)c(S(=O)(=O)O)cc5c4)ccc3c2O)c1 [Compound 43]	–	> 20000	> 20000	–	52	–	–	–
COc1cc(C(=O)O)ccc1N=Nc1c(S(=O)(=O)O)cc2cc(NC(=O)C(=O)Nc3ccc4c(O)c(N=Nc5ccc(C(=O)O)cc5OC)c(S(=O)(=O)O)cc4c3)ccc2c1O [Compound 99]	–	–	300	active or moderately active	–	–	–	–
COC(=O)/C=C/c1ccc(N=Nc2c(S(=O)(=O)O)cc3cc(NC(=O)Nc4ccc5c(O)c(N=Nc6ccc(/C=C/C(=O)OC)cc6)c(S(=O)(=O)O)cc5c4)ccc3c2O)cc1 [Compound 56]	–	> 3000	> 3000	–	27	–	–	–
O=C(Nc1ccc2c(O)c(N=Nc3cnc4ccccc4c3)c(S(=O)(=O)O)cc2c1)Nc1ccc2c(O)c(N=Nc3cnc4ccccc4c3)c(S(=O)(=O)O)cc2c1 [Compound 37]	–	> 3000	> 3000	–	16	–	–	–
O=C(Nc1ccc2c(O)c(N=Nc3ccc(CP(=O)(O)O)cc3)c(S(=O)(=O)O)cc2c1)Nc1ccc2c(O)c(N=Nc3ccc(CP(=O)(O)O)cc3)c(S(=O)(=O)O)cc2c1 [Compound 61]	–	> 3000	> 3000	–	–	53	–	–
COC(=O)c1ccc(N=Nc2c(S(=O)(=O)O)cc3cc(NC(=O)Nc4ccc5c(O)c(N=Nc6ccc(C(=O)OC)cc6I)c(S(=O)(=O)O)cc5c4)ccc3c2O)c(I)c1 [Compound 47]	–	> 3000	> 3000	–	2	–	–	–
CCOC(=O)c1ccccc1N=Nc1c(S(=O)(=O)O)cc2cc(NC(=O)Nc3ccc4c(O)c(N=Nc5ccccc5C(=O)OCC)c(S(=O)(=O)O)cc4c3)ccc2c1O [Compound 42]	–	> 3000	> 3000	–	47	–	–	–
O=C(Nc1ccc2c(O)c(N=Nc3ccc4oc(=O)ccc4c3)c(S(=O)(=O)O)cc2c1)Nc1ccc2c(O)c(N=Nc3ccc4oc(=O)ccc4c3)c(S(=O)(=O)O)cc2c1 [Compound 59]	–	2000	1000	–	2	–	–	–
COc1ccc(N=Nc2c(S(=O)(=O)O)cc3cc(NC(=O)Nc4ccc5c(O)c(N=Nc6ccc(OC)nc6OC)c(S(=O)(=O)O)cc5c4)ccc3c2O)c(OC)n1 [Compound 40]	–	> 3000	> 3000	–	31	–	–	–
O=C(Nc1ccc2c(O)c(N=Nc3cccc([N+](=O)[O-])c3)c(S(=O)(=O)O)cc2c1)Nc1ccc2c(O)c(N=Nc3cccc([N+](=O)[O-])c3)c(S(=O)(=O)O)cc2c1 [Compound 45]	–	–	–	–	2.8	–	> 3000	> 3000
O=C(O)CC(C(=O)O)c1ccc(N=Nc2c(S(=O)(=O)O)cc3cc(NC(=O)Nc4ccc5c(O)c(N=Nc6ccc(C(CC(=O)O)C(=O)O)cc6)c(S(=O)(=O)O)cc5c4)ccc3c2O)cc1 (centres unmarked) [Compound 33]	500	300	600	–	–	–	–	–
O=C(O)CCC(NC(=O)c1ccc(N=Nc2c(S(=O)(=O)O)cc3cc(NC(=O)Nc4ccc5c(O)c(N=Nc6ccc(C(=O)NC(CCC(=O)O)C(=O)O)cc6)c(S(=O)(=O)O)cc5c4)ccc3c2O)cc1)C(=O)O (centres unmarked) [Compound 57]	–	600	900	active or moderately active	0.6	–	–	–
O=C(Nc1ccc2c(O)c(N=Nc3ccc(Br)cc3Br)c(S(=O)(=O)O)cc2c1)Nc1ccc2c(O)c(N=Nc3ccc(Br)cc3Br)c(S(=O)(=O)O)cc2c1 [Compound 41]	–	> 20000	> 20000	–	66	–	–	–
O=C(Nc1ccc2c(O)c(N=Nc3cc(C(=O)O)cc(C(=O)O)c3)c(S(=O)(=O)O)cc2c1)Nc1ccc2c(O)c(N=Nc3cc(C(=O)O)cc(C(=O)O)c3)c(S(=O)(=O)O)cc2c1 [Compound 51]	–	500	900	–	1.1	–	–	–
COc1cc(C(=O)O)c(N=Nc2c(S(=O)(=O)O)cc3cc(NC(=O)Nc4ccc5c(O)c(N=Nc6c(C(=O)O)cc(OC)c(OC)c6OC)c(S(=O)(=O)O)cc5c4)ccc3c2O)c(OC)c1OC [Compound 50]	–	2000	2000	–	1.3	–	–	–
Cc1cc(C(=O)O)ccc1N=Nc1c(S(=O)(=O)O)cc2cc(NC(=O)C(=O)Nc3ccc4c(O)c(N=Nc5ccc(C(=O)O)cc5C)c(S(=O)(=O)O)cc4c3)ccc2c1O [Compound 103]	–	< 1000	< 1000	active or moderately active	–	–	–	–
